{
  "source": "patent US10004770B2",
  "about": "“Production and use of bacterial histamine” (BioGaia AB, priority 2011, dated 2018)",
  "key": {"H2 receptor": {"biological_target": "T1, H2 receptor (Mus musculus, UniProt P97292)", "T1 construct": "host or cells: living mice (endogenous receptor)", "T1 sequence (P97292 whole entry)": "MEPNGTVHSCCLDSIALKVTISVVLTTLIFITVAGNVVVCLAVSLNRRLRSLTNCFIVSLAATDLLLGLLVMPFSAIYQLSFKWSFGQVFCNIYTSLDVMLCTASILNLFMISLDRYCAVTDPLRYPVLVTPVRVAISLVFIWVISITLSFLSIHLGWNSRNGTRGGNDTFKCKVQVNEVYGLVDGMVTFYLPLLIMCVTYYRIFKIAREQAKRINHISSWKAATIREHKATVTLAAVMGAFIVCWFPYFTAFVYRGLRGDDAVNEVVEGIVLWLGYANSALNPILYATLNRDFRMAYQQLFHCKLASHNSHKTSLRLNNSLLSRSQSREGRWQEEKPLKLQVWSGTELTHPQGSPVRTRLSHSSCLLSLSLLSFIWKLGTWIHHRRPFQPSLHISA", "settings": "endotoxin shock (LPS challenge) and hepatitis (LPS plus galactosamine challenge); cited from earlier work"}, "[1]": {"tested_on": "peripheral blood mononuclear cells", "settings": "cited from earlier work"}, "ERK1/2": {"tested_on": "ERK1/2", "test": "ERK1/2 activation by Western blot", "type": "cell-based, human", "settings": "activated THP-1 cells, compared to media control", "method": "(§1) THP-1 cells were lysed in ice-cold lysis buffer consisting of 50 mM Tris, pH 7.4, 250 mM NaCl, 5 mM EDTA, 50 mM NaF, 1 mM Na3VO4, 1% v/v Nonidet P40, 0.2% v/v NaN3, and protease and phosphatase inhibitors. Lysates were incubated on ice for 30 min, vortexed every 10 min, and cleared by centrifugation at 13,000×g for 10 min at 4° C. Protein concentrations were measured using the Quant-iT™ Protein Assay kit (Invitrogen) and a Qubit fluorometer according to the manufacturer's instructions. Equal amounts of proteins were loaded onto electrophoresis gels.\n(§2) Analysis of ERK1/2 activation was performed using specific phospho-ERK1/2 antibodies. Cell extracts were loaded on a 10% SDS-polyacrylamide gel and transferred to polyvinylidene difluoride membranes (Bio-Rad, Hercules, Calif.). Membranes were blocked overnight at 4° C. in blocking buffer (Li-Cor Biosciences, Lincoln, Nebr.). After several washes, membranes were probed with ERK1/2, phospho-ERK1/2 or β-Actin specific antibodies diluted in blocking buffer (Li-Cor) for 1 h at room temperature. After washes, membranes were incubated with the appropriate horseradish peroxidase-conjugated secondary antibody for 1 h at room temperature, and blots were then developed using a chemiluminescent detection. Analysis of MEK1/2 activation was performed as described above except primary antibody incubation was overnight at 4° C."}, "[2]": {"tested_on": "intracellular cAMP in THP-1 cells (H2 receptor signaling)", "test": "Intracellular cAMP in TLR2-stimulated THP-1 cells", "type": "cell-based, human", "settings": "THP-1 cells stimulated with TLR2 agonist", "method": "The H2 receptor is a G protein linked receptor that can activate adenylate cyclase and increase intracellular cAMP. TNF can be inhibited at the level of transcription by cAMP and cAMP analogs. THP-1 cells were stimulated with a TLR2 agonist in the presence of a medium control, 6475 supernatant or histamine with or without an H2 receptor antagonist and intracellular levels of cAMP were measured. […] A synthetic analog of cAMP, dibutyryl cAMP (dcAMP), was added to TLR2-stimulated THP-1 cells and the effect on TNF production was monitored."}, "MEK1/2": {"tested_on": "MEK1/2", "test": "MEK1/2 activation by Western blot", "type": "cell-based, human", "settings": "activated THP-1 cells, compared to media control", "method": "as §1, §2"}, "[3]": {"tested_on": "TNF production from TLR2-activated THP-1 cells", "test": "TNF inhibition bioassay and TNF ELISA", "type": "cell-based, human", "settings": "for TNF production (TNF inhibition): THP-1 cells stimulated with 100 ng/mL Pam3Cys-SKKKK, 3.5 h, samples 5% v/v, histamine 10^-5 M, 6475 grown in glucose media (LDMIIIG); for block of TNF-inhibition by histamine: antagonist added before histamine 10^-5 M, ranitidine, cimetidine 10^-4-10^-6 M, indomethacin 10^-5-10^-6 M", "method": "In vitro experiments were performed with THP-1 cells (human monocytoid cell line, ATCC, Manassas, Va.) maintained in RPMI (ATCC) and heat-inactivated fetal bovine serum (Invitrogen, Carlsbad, Calif.) at 37° C., 5% CO2. MEK1/2, phospho-MEK1/2, ERK1/2, and phospho-ERK1/2 antibodies and MEK inhibitor U0126 were received from Cell Signaling Technology (Danvers, Mass.), and the β-Actin antibody was received from Abcam (Cambridge, Mass.). All other reagents were received from Sigma (St. Louis, Mo.) unless otherwise stated.\nBacterial supernatants (10 mL) from a 24 h LDMIII culture were filter-sterilized using PVDF membrane filters (0.22 μm pore size, Millipore) and size fractionated as described above. One milliliter of the <3 kDa filtrate was speed vacuum dried and resuspended in RPMI media. These processed supernatant samples are termed conditioned media. All supernatants were normalized by volume to an OD600=1.0. Lyophilized fractions from the HILIC-HPLC separation were resuspended in 400 μL 10 mg/mL ammonium bicarbonate, speed vacuum dried, and resuspended in 400 μL RPMI media. Conditioned media and cell pellet wash fractions were tested for their ability to modulate TNF production in monocytoid cells. In brief, THP-1 cells (approximately 5×10^4 cells) were stimulated to produce TNF by the addition of 100 ng/mL Pam3Cys-SKKKK×3 HCl (EMC Microcollections, Tuebingen, Germany) as previously described. Inhibitors—H2 receptor antagonists, ranitidine and cimetidine (10^−4-10^−6 M), […], indomethacin (10^−5-10^−6 M), MEK inhibitor, U0126 (10 μM), and PKA inhibitor, H89 (N-[2-(p-bromocinnamylamino)ethyl]-5-isoquinolinesulfonamide dihydrochloride) (10^−5 M)—were added to the THP-1 cells followed by L. reuteri conditioned media or cell pellet wash fractions (5% v/v), histamine (10^−5 M), or dibutyryl cAMP (10^−3-10^−7 M). Plates were incubated at 37° C. and 5% CO2 for 3.5 h. THP-1 cells were pelleted (3000× g, 5 min, 4° C.), and quantitative ELISAs were used to determine TNF quantities in THP-1 cell supernatants according to the manufacturer's instructions (R&D Systems, Minneapolis, Minn.)."}, "TNFR1 [4]": {"tested_on": "TNFR1", "settings": "injection into human skin engrafted on immunodeficient mice; cited from earlier work"}, "TNFR1 [5]": {"tested_on": "TNFR1", "settings": "cultured human endothelial cells; cited from earlier work"}, "LPS-induced liver injury": {"tested_on": "LPS-induced liver injury", "settings": "mouse; cited from earlier work"}, "[6]": {"tested_on": "LPS-stimulated human monocytes and macrophages", "settings": "cited from earlier work"}, "patients with IBS": {"tested_on": "patients with IBS", "settings": "cited from earlier work"}},
  "note": "Entries after “also recorded” stand apart in the source; their conditions may differ.",
  "data": [
    {"molecule": "CN(C)CCCSC(=N)N", "note": "[dimaprit]", "values": [
      {"measurement": "plasma TNF levels", "setting": "H2 receptor", "value": "reduced plasma TNF levels"}
    ]},
    {"molecule": "NCCc1c[nH]cn1", "note": "[histamine]", "values": [
      {"measurement": "LPS-induced synthesis of TNF-α", "setting": "[1]", "value": "suppressed"},
      {"measurement": "phosphorylation (activation) of ERK1/2", "setting": "ERK1/2", "value": "blocks phosphorylation; also recorded: suppressed activation of ERK1/2"},
      {"measurement": "intracellular cAMP", "setting": "[2]", "value": "increase in cAMP; also recorded: increased intracellular cAMP"},
      {"measurement": "phosphorylation (activation) of MEK1/2", "setting": "MEK1/2", "value": "blocks phosphorylation; also recorded: suppressed activation of MEK1/2"},
      {"measurement": "TNF production (TNF inhibition)", "setting": "[3]", "value": "concentration dependent; also recorded: significantly inhibited TNF production"},
      {"measurement": "TNF production (TNF inhibition)", "setting": "[3]; listed as Histamine", "value": "significantly inhibit TNF production"},
      {"measurement": "TNFR1 shedding and TNF-mediated induction of endothelial adhesion molecules", "setting": "TNFR1 [4]", "value": "caused shedding of TNFR1 and diminished TNF-mediated induction of endothelial adhesion molecules"},
      {"measurement": "TNFR1 surface level, shedding and mobilization", "setting": "TNFR1 [5]", "value": "transient loss of surface TNFR1, increased TNFR1 shedding, and mobilization of TNFR1 molecules from the Golgi"},
      {"measurement": "protection in LPS-induced liver injury", "setting": "LPS-induced liver injury", "value": "protective"},
      {"measurement": "production of pro-inflammatory cytokines IL-1, IL-12 and TNF", "setting": "[6]; LPS-stimulated human monocytes and macrophages", "value": "can inhibit production"},
      {"measurement": "production of anti-inflammatory cytokine IL-10", "setting": "[6]; via the H2 receptor", "value": "can stimulate production"}
    ]},
    {"molecule": "Cl.Cl.O=S(=O)(NCCNCC=Cc1ccc(Br)cc1)c1cccc2cnccc12", "note": "[H89, N-[2-(p-bromocinnamylamino)ethyl]-5-isoquinolinesulfonamide dihydrochloride]", "values": [
      {"measurement": "block of TNF inhibition by PKA inhibitor", "setting": "[3]; H89 10^-5 M in presence of 6475 supernatant, fraction B3, histamine or dcAMP", "value": "partially blocked TNF inhibition"}
    ]},
    {"molecule": "CCCC(=O)Nc1ncnc2c1ncn2[C@@H]1O[C@@H]2COP(=O)(O)O[C@H]2[C@H]1OC(=O)CCC", "note": "[dcAMP, dibutyryl cAMP]", "values": [
      {"measurement": "TNF production", "setting": "[3]; dcAMP 10^-5-10^-3 M added to TLR2-stimulated THP-1 cells", "value": "sufficient to inhibit TNF production"}
    ]},
    {"molecule": "CN1CCC(=C2c3ccccc3CC(=O)c3sccc32)CC1", "note": "[ketotifen]", "values": [
      {"measurement": "IBS symptoms", "setting": "patients with IBS; patients with IBS", "value": "decreased IBS symptoms"},
      {"measurement": "pain threshold", "setting": "patients with IBS; patients with IBS", "value": "increased pain threshold"},
      {"measurement": "number or activity of mast cells (histamine and tryptase release)", "setting": "patients with IBS; rectal biopsy tissue", "value": "no change"}
    ]},
    {"molecule": "COc1ccc2c(c1)c(CC(=O)O)c(C)n2C(=O)c1ccc(Cl)cc1", "note": "[indomethacin]", "values": [
      {"measurement": "block of TNF-inhibition by histamine", "setting": "[3]", "value": "no effect"}
    ]},
    {"molecule": "N#CC(=C(/N)Sc1ccccc1N)/C(C#N)=C(\\N)Sc1ccccc1N", "note": "[U0126]", "values": [
      {"measurement": "phosphorylation (activation) of ERK1/2", "setting": "ERK1/2", "value": "blocks phosphorylation; also recorded: suppressed activation of ERK1/2"},
      {"measurement": "phosphorylation (activation) of MEK1/2", "setting": "MEK1/2", "value": "blocks phosphorylation; also recorded: suppressed activation of MEK1/2"},
      {"measurement": "TNF production", "setting": "[3]; U0126 treatment for 30 min prior to TLR2 agonist stimulation", "value": "sufficient to prevent TNF production"}
    ]},
    {"molecule": "CN/C(=N/CCSCc1nc[nH]c1C)NC#N", "note": "[cimetidine]", "values": [
      {"measurement": "block of TNF-inhibition by histamine", "setting": "[3]", "value": "could block TNF-inhibition by histamine in a concentration dependent manner"}
    ]}
  ]
}
